In a melting point compilation (Tetko et al.; mined from patent text by program, amines drawn as free bases though some values may be those of a salt):

| Compound | melting point [°C] |
| --- | --- |
| O=C(O)c1ccc(F)c2c1CC(N(CCCc1c[nH]c3ccc(F)cc13)C1CCC1)CO2 (centres undefined) | 140 |
| CCCCCN(CCC12CC3CC(CC(C3)C1)C2)C(=O)NCC(Cc1ccccc1)Cc1ccncc1 (centres undefined) | 111 to 116 |
| Cc1ccc(-c2c[nH]c(-c3ccc4c(c3)C(C)(C)CCC4(C)C)c2)cc1 | 190 to 192 |
| CCN(CC)CCNC(=O)c1ccc2cc(I)ccc2c1 | 105 to 107 |
| CC1CCC2C3CC(=O)C4=CC(=O)CCC4(C)C3CCC12C (centres undefined) | 94 to 95 |
| N#Cc1cc(Cl)cc2c1OC(C(F)(F)F)C(C(=O)O)=C2 (centres undefined) | 238 to 240 |
| CCOCc1nc2c(N)nc3cc(OCc4cscn4)ccc3c2n1CC(C)(C)O | 190 to 191 |
| N#CCCc1c(SC(F)(F)F)c(C#N)c(Cl)n1-c1c(Cl)cc(C(F)(F)F)cc1Cl | 150 |
| CCOCc1nnc2c(C(F)(F)F)c(CN[C@H]3CC[C@@H](c4ccccc4)CC3)ccn12 | 137 |
| COC(=O)c1ccc(-n2cccn2)cc1 | 107 to 109 |
| O=C(NCCCN1CCN(c2cccc(Cl)c2)CC1)NC12CC3CC(CC(C3)C1)C2 | 174 to 175 |
| CNC(=O)Oc1cnn(C(C)C)c1 | 40 |
| CC(=O)N[C@@H](C)COC1CCN(c2nc3cc(OCC4CC4)ccc3s2)CC1 | 115 to 116 |
| CCCNC(=O)NS(=O)(=O)c1cc2c(cc1OC)OCC(NC(=O)c1cc(Cl)ccc1OC)C2 (centres undefined) | 203 to 205 |
| CC(C)=Cc1ccc(/C=C/CCl)cc1 | 48 to 50 |
| CCn1nnc2cc3c(=O)n(C(C)Cn4ncnn4)nnc3cc2c1=O (centres undefined) | 174 to 176 |
| COc1ccc2cc3c(Cl)n[nH]c3nc2c1 | 296 to 297 |
| CCCCC[C@H]1CC[C@H](c2ccc(F)c(F)c2)CC1 | -9.5 |
| CCOCc1nc2c(N)nc3cc(Br)ccc3c2n1CC1COC(C)(C)O1 (centres undefined) | 176 to 177 |
| O=S(=O)(Nc1ccc(N2CCN3CCC2CC3)cc1)c1ccccc1 | 267 |
| CS(=O)(=O)c1ccc(-c2cc(CCCO[N+](=O)[O-])nn2C2CCCCC2)cc1 | 77 |
| CSc1c(C)c(-c2ncc(Cl)cc2F)nn1C | 61 to 64 |
| COc1c(N2CC(C)C(N)C(C)C2)c(F)cc2c(=O)c(C(=O)O)cn(C3CC3)c12 (centres undefined) | 178 to 180 |
| COC(=O)C(C)Oc1cc(C)ccc1COc1ccc([N+](=O)[O-])c(F)c1 (centres undefined) | 92 to 94 |
| CCCCCCCCCCCCCCCCCCOc1ccc(OCCCc2ccccc2)c(C(=O)N(CC(=O)OCC)CC(=O)OCC)c1 | 54 to 55 |
| O=C(Nc1cccc2c1C(=O)c1c-2n[nH]c1-c1ccc(C(=O)NC2CN3CCC2CC3)s1)NN1CCOCC1 (centres undefined) | 245 to 246 |

| Compound | melting point [°C] |
| --- | --- |
| COC1C(N2CCCC2=O)c2sccc2OC1(C)C (centres undefined) | 117 to 118 |
| CCOP(=O)(Cc1ccnc(C(N)=O)c1)OCC | 140 to 142 |
| CCOC(=O)c1c(CC(=O)O)n(-c2ccc(OC(F)(F)F)cc2)c2ccc(Oc3ncccc3C(N)=O)cc12 | 128 to 130 |
| CN1C(=O)C2(COc3cc4c(cc32)OCCO4)c2c(NC(=O)C3CCCC3)cccc21 (centres undefined) | 196 to 198 |
| CCCCCCc1cc2c(cc1OCCCC(=O)O)C(=O)C(C)(C)C2 | 82 |
| Cc1nc(-c2ccc3c(c2)CCCC3)c(Br)o1 | 97 to 98 |
| CC(C)c1cc(C(C)C)c(CC(=O)NS(=O)(=O)Oc2c(C(C)C)cc(C=CC#N)cc2C(C)C)c(C(C)C)c1 | 157 to 160 |
| CCOC(=O)c1cc2c(cn1)[nH]c1ccc(Br)cc12 | 308 to 313 |
| CC1=C(/C=C/C(C)=C/C=C/C(C)=C/C(=O)O)C(C)(C)CCC1=O | 184 to 187 |
| NC(=O)c1cccnc1N1CCN(CC(O)CO)CC1 (centres undefined) | 140 to 142 |
| CCN(CC)c1ccc(C=C2CC(C)CC(=Cc3ccc(N(CC)CC)cc3)C2=O)cc1 (centres undefined) | 169 |
| COC(=O)CCCNC(=O)c1cc(O)ccc1O | 155 to 159 |
| CCOC(=O)C(O)CCn1cnc2c(=O)[nH]c(N)nc21 (centres undefined) | 161 to 163 |
| CN(C)C(=O)c1ncn2c(=O)n(CCCl)nnc12 | 114 to 116 |
| CC(C)(CF)C(O)(COc1ccc(F)cc1)Cn1cncn1 (centres undefined) | 97 to 99 |
| CC(=O)OC1CSC(Oc2cccc3onc(C)c23)C(OC(C)=O)C1OC(C)=O (centres undefined) | 155 to 158 |
| CCCc1nn(-c2ccc(C(F)(F)F)cn2)cc1CCCOc1ccc(CC(=O)O)c(C)c1 | 134 to 135 |
| Cc1ccc2nc3[nH]c(=O)[nH]c3cc2c1C | > 300 |
| CN(C)C1(c2ccccc2)CCC(c2[nH]c3ccccc3c2CC2CCCCC2)CC1 (centres undefined) | 195 to 198 |
| CC(=O)Nc1nc(CCc2ccc(CCCN)s2)cs1 | 106 to 108 |
| COc1ccc([N+](=O)[O-])cc1C=O | 89 to 90 |
| CCOC(=O)c1ccc(-c2c[nH]c(-c3ccc4c(c3)C(C)(C)CCC4(C)C)n2)cc1 | 186 to 188 |
| CN(CCOc1ccc(Cl)c2c1CC(=O)N2)c1cccs1 | 203 to 204 |
| O=C(COC1CCCCCCCCCCC1)C1=C(O)CSC1=O | 93 to 95 |
| CCCCC1(O)C(C)=CC(=O)CC1(C)C (centres undefined) | 90 to 93 |
| NC(=O)CN1CC2C=CC1C2 (centres undefined) | 74 to 96 |

Continued, values first:

| melting point [°C] | Compound |
| --- | --- |
| 152 to 153 | CS(=O)(=O)c1ccc(/C=C2/C(=O)CCc3ccccc32)cc1 |
| 277 to 279 | O=C1c2cccc3cc([N+](=O)[O-])cc(c23)C(=O)N1O |
| 201 to 202 | FC(F)(F)c1cccc(-c2ccn3ncnc3n2)c1 |
| 167 to 168 | CNC(=O)c1cc2ccccc2c(-c2ccccc2I)n1 |
| 76 | CCOC(=O)C(CC)CCc1cc(-c2ccccc2)nc2ccccc12 (centres undefined) |
| 95.8 to 97.5 | COc1ccc(-c2nnn(-c3ccc(C(F)(F)F)cc3F)c2Cl)c(Cl)c1 |
| 203 to 204 | CCc1cnc2c(NC(=O)c3c(Cl)cccc3Cl)cccc2c1CC(C)(C)O |
| 94 to 96 | Cn1cc(-c2cccc(F)c2)c(=O)c(-c2cccc(C(F)(F)F)c2)c1 |
| 105 to 107 | C=CCOC(=O)c1cccc(NC(=O)NCC(=O)N(CC(=O)OC(C)(C)C)c2ccccc2C(=O)c2ccccc2)c1 |
| 161 to 163 | Oc1ccc(Br)cc1C=Nc1cc(Cl)cc(Cl)c1 |
| 101 to 103 | CCNCCCN1c2ccccc2N(C)C(=O)c2c(C)cc(C)nc21 |
| 82.7 | Clc1ccc(C2(CCBr)OCC(c3ccc(Cl)cc3Cl)O2)cc1 (centres undefined) |
| 237 to 239 | CCC(NC(C)=O)c1ccc(Cl)c2nc3n(c12)CCCN3c1ccc(Cl)cc1Cl (centres undefined) |
| 178 to 180 | O=C1CCC(N2Cc3c(OCc4ccc(CN5CCCC5C(F)(F)F)cc4)cccc3C2=O)C(=O)N1 (centres undefined) |
| 202 to 204 | CC1CN(c2ccc(C(N)=O)cc2)CCN1Cc1cn2cc(Cl)ccc2n1 (racemic) |
| 181 to 182 | O=c1oc(-c2ccccc2)cc(O)c1Sc1cccc(Cl)c1 |
| 184 to 185 | Cc1c2ccccc2c(-c2ccc(O)cc2)c2c1sc1ccccc12 |
| 142 | O=C(NCc1ccc(Br)cc1)c1c(F)cccc1F |
| 111 to 120 | COc1ccc(OCc2ccccn2)cc1/C=C/c1cc(/C=C/c2ccc3cc[nH]c3c2)n[nH]1 |
| 260 to 262 | O=c1c2cccnc2c(-c2ccc(Cl)cc2)c2n1CCN2 |
| 98 to 100 | CCC(=C(c1ccc(I)cc1)c1ccc(OCCCCl)cc1)c1ccccc1 |
| 105 to 106 | Fc1ccc(/C=C/c2nc(COc3cccc(CCCn4ccnn4)c3)co2)cc1 |
| 190 to 192 | COc1cc(OC)c2c3c(n(Cc4ccccc4)c2c1)CCCC3C(N)=O (centres undefined) |
| 137 to 139 | Cc1ccc(C(=O)NCc2ccc(O)c3ncccc23)cc1 |

| melting point [°C] | Compound |
| --- | --- |
| 160 to 162 | CN1C(=O)c2c(c3ccc(Cl)cc3n2CCN2CCCCC2)Oc2ccccc21 |
| 140 to 142 | O=C1c2ccccc2C(=O)N1Cc1ccc(I)cc1Cl |
| 164 to 166 | CCOC(=O)c1cn(-c2ccc([N+](=O)[O-])cn2)nc1SCc1ccccc1 |
| 161 to 163 | COC(=O)C1C(=O)Nc2ccc(C(F)(F)F)cc2CC1c1ccc(OC)cc1 (centres undefined) |
| 118 to 120 | COc1ccc2c3c(c(=O)oc2c1)CN(Cc1ccccc1)CC3 |
| 100 to 101 | CCS(=O)(=O)CCOc1cc(CCCOc2nn(Cc3ccccc3)cc2CC(=O)O)n(Cc2ccc(Cl)cc2Cl)n1 |
| 221 to 222 | OC(CNc1ccnc2cc(Cl)ccc12)c1ccccc1 (centres undefined) |
| 188 to 189 | CN(C(=O)CNc1nc(-c2ccc(C(F)(F)F)cc2)nc(-c2ccccc2)c1Cl)C1CC1 |
| 166 to 168 | CCC(C(=O)Oc1cc(=O)n(-c2ccccc2)c2ncccc12)c1ccccc1 (centres undefined) |
| 169 to 171 | CN1CC2(OCCO2)c2ccc3ccccc3c2S1(=O)=O |
| 149 to 150 | COc1ccc(Nc2cnc3c(NCc4ccccc4)nc(NCCO)nc3c2)cc1OC |
| 129 to 130 | O=C(Nc1ccccc1)c1ccc(OC(F)(F)F)c(Nc2cccc(C(F)(F)F)c2)c1 |
| 155 to 156 | CC1(c2ccc(N)cc2)C(=O)Nc2cc(Cl)ccc2C1=O (centres undefined) |
| 195 to 196 | CC(=NNC(=N)N)c1sc(-c2ccccc2)nc1C |
| 85 to 88 | COCOc1ccc(C(C(c2ccccc2)c2ccc(F)cc2)C(F)(F)F)cc1 (centres undefined) |
| 230 | Cn1cncc1C(O)(c1ccc([N+](=O)[O-])cc1)c1ccc2c(c1)c(-c1cccc(Cl)c1)cc(=O)n2C (centres undefined) |
| 171 to 172 | NC(=O)Cc1ccc2c(c1)C(=O)Cc1ccccc1S2 |
| 59 to 61 | COc1ccc(SCc2oc(=O)oc2C)cc1 |
| 151 to 153 | CCCn1cc(Cc2ccc(C(=O)O)cc2OC)c2cc(C=CCCC(=O)N(C)C)ccc21 |
| 150 to 151 | COc1cc(COc2nc(-c3ccccc3)ncc2CO)ccc1OCc1nc(-c2ccco2)oc1C |
| 208 to 210 | CCCCNC(=O)NS(=O)(=O)c1ccc(CCNC(=O)N2Cc3ccc(Cl)cc3C2=O)cc1 |
| > 300 | O=c1[nH]c2ccccc2nc1-c1cc(O)c(O)c([N+](=O)[O-])c1 |
| 168 to 169 | N#Cc1ncn2c(-c3cccc(C(F)(F)F)c3)ccnc12 |
